Laboratory results from patent publication US9095567B2, “Vaccine formulations” (priority 2010, dated 2015).

Columns and labels:
Test in all cases: Preservative effectiveness test, single challenge
Type in all cases: cell-based
[1] = system: Aspergillus niger (ATCC #16404); details: Prev(e)nar 13 formulation, single challenge, 20 to 25° C.
Text: (§1) To test for preservative effectiveness, aliquots of vaccine were inoculated with the following organisms:
(§2) Thirty milliliters (ml) of each vaccine formulation with and without Thimerosal or 2-PE at indicated concentrations or saline containing Thimerosal at 0.02% were inoculated in triplicates with a suspension of each test organism to achieve an inoculum density of approximately 10^5 to 10^6 CFU/ml at time 0 (CFU=colony forming units). […] Samples were mixed to ensure even distribution of challenged organisms. Another 30 ml of vaccine in triplicate (with and without preservative) were used as a negative control and spiked with the culture media alone to evaluate the inherent contamination that might be present in the sample or media. Each of the three series of vaccines, and positive and negative controls, was then separately incubated at 20 to 25° C. Aliquots (1 ml) of the challenged samples and controls (or their appropriate serial ten fold dilutions) were enumerated by plate count in duplicates at time 0 and at intervals of 6 hours, 24 hours, 7 days, 14 days and 28 days post-inoculation.
(§3) USP 29 NF 24 Supplement 2 (USP) requires that, after an inoculation of bacterial micro-organism(s), there is at least 1.0 log reduction from the initial calculated count (i.e., at time of inoculation) at 7 days, at least 3.0 log reduction at 14 days from the previous value measured and no increase at 28 days from the previous measured value. For yeast and fungi, the USP requirement is for there to be no increase from the time of inoculation to 7, 14 and 28 days.
(§4) EP requirements are more stringent. EP 5th Edition 5.6 (5.1.3) requirements for parenteral and ophthalmic preparations has two components: Category A and Category B. Category A (EP-A) requires, for bacteria, at least 2.0 log reduction from the initial calculated count at 6 hours after inoculation, at least 3.0 log reduction at 24 hours from the previous measured value, and no recovery at 28 days. Category B (EP-B) requires, for bacteria, at least 1.0 log reduction at 24 hours from the initial calculated count, at least 3.0 log reduction at 7 days from the previous value measured and not more than 0.5 log increase at 28 days from the previous value measured (i.e., no increase). For yeast and fungi, Category A requires at least 2.0 log reduction at 7 days and no increase from the previous value measured at 28 days, and Category B requires at least 1.0 log reduction at 14 days and no increase from the previous value measured at 28 days.
(§5) Plates containing <300 CFU for bacteria or <100 CFU for yeast or mold were used during enumeration. For single challenge studies, arithmetic average count of all surviving micro-organisms in triplicate and on duplicate plates (6 values per time point) plus their diluted samples were measured and normalized as CFU/ml. The results are expressed as mean log10 CFU/ml reduction (compared to time 0). In this case, the count of surviving micro-organisms is evaluated at time 0 as the baseline and compared to incubation time of 6 hours, 24 hours, 7 days, 14 days and 28 days.

[2] = system: Candida albicans (ATCC#10231); details: Prev(e)nar 13 formulation, single challenge, 20 to 25° C.
Text: as §1, §2, §3, §4, §5

E. coli = details: Prev(e)nar 13 formulation, 20 to 25° C.
Text: as §1, §2, §3, §4, §5

[3] = system: Pseudomonas aeruginosa (ATCC #9027); details: Prev(e)nar 13 formulation, 20 to 25° C.
Text: as §1, §2, §3, §4, §5

[4] = system: Staphylococcus aureus (ATCC #6538); details: Prev(e)nar 13 formulation, single challenge, 20 to 25° C.
Text: as §1, §2, §3, §4, §5

Structure (SMILES)	EP (EP-B) vaccine safety requirements, A. niger [1]	USP vaccine safety requirements, A. niger [1]	EP (EP-B) vaccine safety requirements, C. albicans [2]	USP vaccine safety requirements, C. albicans [2]	EP (EP-B) vaccine safety requirements, E. coli (E. coli)	USP vaccine safety requirements, E. coli (E. coli)	EP (EP-B) vaccine safety requirements, P. aeruginosa [3]	USP vaccine safety requirements, P. aeruginosa [3]	EP (EP-B) vaccine safety requirements, S aureus [4]	USP vaccine safety requirements, S aureus [4]
Oc1ccccc1 [0.25% phenol, Phenol]	Meets	Meets	Meets	Meets	Fails	Meets	Fails	Meets	Fails	Meets
Cc1cccc(O)c1 [0.3% m cresol, Meta-Cresol]	Meets	Meets	Meets	Meets	Fails	Meets	Fails	Meets	Fails	Meets
